Laboratory results from patent publication US11857519B2, “Compounds and methods for the targeted degradation of enhancer of zeste homolog 2 polypeptide” (Arvinas Operations, Inc., priority 2016, dated 2024).

Molecular target: T1, EZH2 (Homo sapiens, UniProt Q15910)
T1 construct: Protocol of the Cellular Assay of Target Protein Degradation (VCaP Cells, ELISA); endogenous in cells; host or cells: VCaP cells
Assay: Cellular assay of target protein degradation (VCaP cells, ELISA)
Type: cell-based
Settings: 4 hours, protein degradation range at indicated concentration (relative to DMSO control)
Experimental: Protocol of the Cellular Assay of Target Protein Degradation (VCaP Cells, ELISA).
For detection Cell Signaling PathScan Sandwich ELISA Catalog #12850 Lot 11 was used. VCaP cells were cultured in ATCC DMEM+ATCC FBS and plated 40,000/well 100 μl/well in RPMI P/S with 5% CSS Omega (bovine) serum into a 96 well plate. The cells were grown for a minimum of 3 days, dosed with compounds in 0.1% DMSO (diluted with 5% CSS) and incubated with aspiration for 4 hours. 100 μl of 1× Cell Signaling lysis buffer #9803 (36 mL dH2O+4 mL Cell Signaling lysis buffer) was added. The incubation was placed on cold room shaker for 10 minutes at speed 8-9. 5 μl to 100 μL of Diluent was transferred to ELISA plate (0.15 μg/mL−0.075 μg/mL) and stored at 4° C. overnight on cold room shaker speed 5 (gentle swirl) and then shaken next morning at 37° C. for 30 minutes. The preparation was washed 4×200 μl with ELISA wash buffer and aspirated with eight-channel aspirator. 100 μl/well of target protein detection antibody was added after, which the preparation was covered and shaken at 37° C. for 1 hour. 100 μl TMB was added, and the mixture was shaken for 5 min while under observation. When TMB turned light blue, 100 μl of Stop solution was added, and the mixture was shaken and read at 450 nm. Also read at 562 nm for background subtraction.

T1 sequence (Q15910 whole entry): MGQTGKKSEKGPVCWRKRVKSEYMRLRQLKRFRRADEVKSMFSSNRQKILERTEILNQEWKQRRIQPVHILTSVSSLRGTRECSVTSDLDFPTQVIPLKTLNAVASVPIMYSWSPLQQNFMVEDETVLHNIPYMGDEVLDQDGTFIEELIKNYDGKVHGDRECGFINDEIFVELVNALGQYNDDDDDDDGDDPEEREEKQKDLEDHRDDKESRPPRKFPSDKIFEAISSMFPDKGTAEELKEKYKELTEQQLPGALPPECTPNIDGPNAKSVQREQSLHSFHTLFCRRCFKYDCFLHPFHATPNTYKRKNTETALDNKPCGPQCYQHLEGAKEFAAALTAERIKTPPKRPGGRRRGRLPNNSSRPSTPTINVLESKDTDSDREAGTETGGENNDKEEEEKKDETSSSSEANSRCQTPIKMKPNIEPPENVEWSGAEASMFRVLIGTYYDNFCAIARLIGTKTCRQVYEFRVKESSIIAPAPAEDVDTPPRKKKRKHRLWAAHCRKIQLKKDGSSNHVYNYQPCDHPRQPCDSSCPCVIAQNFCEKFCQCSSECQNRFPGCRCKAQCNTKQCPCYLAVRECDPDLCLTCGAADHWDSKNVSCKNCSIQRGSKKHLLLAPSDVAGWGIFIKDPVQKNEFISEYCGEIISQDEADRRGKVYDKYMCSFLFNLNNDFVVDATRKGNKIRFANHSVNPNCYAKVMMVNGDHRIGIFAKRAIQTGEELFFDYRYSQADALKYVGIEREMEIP
T1 sequence (O75530 whole entry partner): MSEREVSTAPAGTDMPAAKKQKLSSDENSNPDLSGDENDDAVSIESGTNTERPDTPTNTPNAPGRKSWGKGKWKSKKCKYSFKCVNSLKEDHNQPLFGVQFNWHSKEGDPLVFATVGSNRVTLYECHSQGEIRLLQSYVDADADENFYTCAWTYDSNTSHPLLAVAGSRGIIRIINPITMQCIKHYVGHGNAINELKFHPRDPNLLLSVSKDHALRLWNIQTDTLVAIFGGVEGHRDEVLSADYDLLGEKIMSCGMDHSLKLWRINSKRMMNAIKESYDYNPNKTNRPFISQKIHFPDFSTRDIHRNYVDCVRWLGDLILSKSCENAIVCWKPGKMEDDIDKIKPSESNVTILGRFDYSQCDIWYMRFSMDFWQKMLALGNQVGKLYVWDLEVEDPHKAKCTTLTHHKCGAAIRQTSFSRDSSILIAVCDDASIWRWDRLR
T1 sequence (Q15022 whole entry partner): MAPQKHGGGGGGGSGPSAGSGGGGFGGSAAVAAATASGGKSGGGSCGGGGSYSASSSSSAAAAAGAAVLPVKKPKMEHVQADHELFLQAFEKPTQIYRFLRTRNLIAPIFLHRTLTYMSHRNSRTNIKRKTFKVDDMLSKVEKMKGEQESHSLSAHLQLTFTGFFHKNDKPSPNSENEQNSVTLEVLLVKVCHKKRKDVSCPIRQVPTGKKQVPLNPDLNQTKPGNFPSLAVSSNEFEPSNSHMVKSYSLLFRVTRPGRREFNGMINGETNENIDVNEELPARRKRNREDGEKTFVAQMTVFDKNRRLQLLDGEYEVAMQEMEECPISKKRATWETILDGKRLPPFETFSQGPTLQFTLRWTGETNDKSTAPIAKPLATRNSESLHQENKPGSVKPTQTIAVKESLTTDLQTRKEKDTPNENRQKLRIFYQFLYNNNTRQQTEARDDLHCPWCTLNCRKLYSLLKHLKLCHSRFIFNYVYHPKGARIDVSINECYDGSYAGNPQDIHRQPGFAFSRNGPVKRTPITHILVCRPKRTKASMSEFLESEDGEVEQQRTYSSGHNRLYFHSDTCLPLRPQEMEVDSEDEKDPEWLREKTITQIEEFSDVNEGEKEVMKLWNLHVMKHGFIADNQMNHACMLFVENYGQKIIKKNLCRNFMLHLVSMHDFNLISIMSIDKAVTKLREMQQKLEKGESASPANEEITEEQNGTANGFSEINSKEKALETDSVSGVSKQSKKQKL

SMILES | percent target protein degradation class
CCN(c1cc(-c2ccc(CN3CCN(CC4CCN(c5ccc6c(c5)C(=O)N(C5CCC(=O)NC5=O)C6=O)CC4)CC3)cc2)cc(C(=O)NCc2c(C)cc(C)[nH]c2=O)c1C)C1CCOCC1 (stereo not shown) [Compound 113, N-((4,6-dimethyl-2-oxo-1,2-dihydropyridin-3-yl)methyl)-4′-((4-((1-(2-(2,6-dioxopiperidin-3-yl)-1,3-dioxoisoindolin-5-yl)piperidin-4-yl)methyl)piperazin-1-yl)methyl)-5-(ethyl(tetrahydro-2H-pyran-4-yl)amino)-4-methyl-[1,1′-biphenyl]-3-carboxamide] | B (B = degradation between 30% and 60%)
Cc1cc(C)c(CNC(=O)c2cc(-c3ccc(CN4CCN(CCOCCOCC(=O)N[C@H](C(=O)N5C[C@H](O)C[C@H]5C(=O)NCc5ccc(-c6scnc6C)cc5)C(C)(C)C)CC4)cc3)cc3c2ccn3C2CCCC2)c(=O)[nH]1 [Compound 2, 1-cyclopentyl-N-[(4,6-dimethyl-2-oxo-1,2-dihydropyridin-3-yl)methyl]-6-{4-[(4-{2-[2-({[(2S)-1-[(2S,4R)-4-hydroxy-2-({[4-(4-methyl-1,3-thiazol-5-yl)phenyl]methyl}carbamoyl)pyrrolidin-1-yl]-3,3-dimethyl-1-oxobutan-2-yl]carbamoyl}methoxy)ethoxy]ethyl)piperazin-1-yl)methyl]phenyl}-1H-indole-4-carboxamide] | B (B = degradation between 30% and 60%)
CCN(c1cc(-c2ccc(OCCOCCOCCOCCOCCOCCOCC(=O)N[C@H](C(=O)N3C[C@H](O)C[C@H]3C(=O)NCc3ccc(-c4scnc4C)cc3)C(C)(C)C)cc2)cc(C(=O)NCc2c(C)cc(C)[nH]c2=O)c1C)C1CCOCC1 [Compound 16, (2S,4R)-1-[(2S)-2-{1-[4-(3-{[(4,6-dimethyl-2-oxo-1,2-dihydropyridin-3-yl)methyl]carbamoyl}-5-[ethyl(oxan-4-yl)amino]-4-methylphenyl)phenyl]-1,4,7,10,13,16,19-heptaoxahenicosan-21-amido}-3,3-dimethylbutanoyl]-4-hydroxy-N-{[4-(4-methyl-1,3-thiazol-5-yl)phenyl]methyl}pyrrolidine-2-carboxamide] | B (B = degradation between 30% and 60%)
CCN(c1cc(-c2ccc(OCCCOc3ccc4c(c3)C(=O)N([C@@H](C(=O)N3C[C@H](O)C[C@H]3C(=O)N[C@@H](C)c3ccc(-c5scnc5C)cc3)C(C)C)C4)cc2)cc(C(=O)NCc2c(C)cc(C)[nH]c2=O)c1C)C1CCOCC1 [Compound 97, (2S,4R)-1-((R)-2-(6-(3-((3′-(((4,6-dimethyl-2-oxo-1,2-dihydropyridin-3-yl)methyl)carbamoyl)-5′-(ethyl(tetrahydro-2H-pyran-4-yl)amino)-4′-methyl-[1,1′-biphenyl]-4-yl)oxy)propoxy)-1-oxoisoindolin-2-yl)-3-methylbutanoyl)-4-hydroxy-N-((S)-1-(4-(4-methylthiazol-5-yl)phenyl)ethyl)pyrrolidine-2-carboxamide] | B (B = degradation between 30% and 60%)
CCN(c1cc(-c2ccc(OCCCCOc3cc(-c4scnc4C)ccc3CNC(=O)[C@@H]3C[C@@H](O)CN3C(=O)[C@H](C(C)C)N3Cc4ccccc4C3=O)cc2)cc(C(=O)NCc2c(C)cc(C)[nH]c2=O)c1C)C1CCOCC1 [Compound 63, (2S,4R)-N-[(2-{4-[4-(3-{[(4,6-dimethyl-2-oxo-1,2-dihydropyridin-3-yl)methyl]carbamoyl}-5-[ethyl(oxan-4-yl)amino]-4-methylphenyl)phenoxy]butoxy}-4-(4-methyl-1,3-thiazol-5-yl)phenyl)methyl]-4-hydroxy-1-[(2S)-3-methyl-2-(1-oxo-2,3-dihydro-1H-isoindol-2-yl)butanoyl]pyrrolidine-2-carboxamide] | B (B = degradation between 30% and 60%)
CCN(c1cc(-c2ccc(OCCOCCOCCOCCOCCOc3ccc(CCN4CC[C@@H]5CCN(C(=O)[C@@H](NC(=O)[C@H](C)NC)C6CCCCC6)[C@@H]5C4)cc3)cc2)cc(C(=O)NCc2c(C)cc(C)[nH]c2=O)c1C)C1CCOCC1 (racemic) [Compound 29, 5-(4-{[1-(4-{2-[(3aR,7aS)-1-[(2S)-2-cyclohexyl-2-[(2S)-2-(methylamino)propanamido]acetyl]-octahydro-1H-pyrrolo[2,3-c]pyridin-6-yl]ethyl]phenyl)-1,4,7,10,13-pentaoxapentadecan-15-yl]oxy}phenyl)-N-[(4,6-dimethyl-2-oxo-1,2-dihydropyridin-3-yl)methyl]-3-[ethyl(oxan-4-yl)amino]-2-methylbenzamide] | B (B = degradation between 30% and 60%)
CCN(c1cc(-c2ccc(OCCCCOCC(=O)N[C@H](C(=O)N3C[C@H](O)C[C@H]3C(=O)N[C@@H](C)c3ccc(-c4scnc4C)cc3)C(C)(C)C)cc2)cc(C(=O)NCc2c(C)cc(C)[nH]c2=O)c1C)C1CCOCC1 [Compound 93] | A (A = degradation more than 60%)
CCN(c1cc(-c2ccc(OCCOCCOCCOCCOCCOCCOCCOCCNc3cccc4c3C(=O)N(C3CCC(=O)NC3=O)C4=O)cc2)cc(C(=O)NCc2c(C)cc(C)[nH]c2=O)c1C)C1CCOCC1 (stereo not shown) [Compound 22, N-[(4,6-dimethyl-2-oxo-1,2-dihydropyridin-3-yl)methyl]-5-[4-({1-[2-(2,6-dioxopiperidin-3-yl)-1,3-dioxo-2,3-dihydro-1H-isoindol-4-yl]-4,7,10,13,16,19,22-heptaoxa-1-azatetracosan-24-yl}oxy)phenyl]-3-[ethyl(oxan-4-yl)amino]-2-methylbenzamide] | B (B = degradation between 30% and 60%)
Cc1cc(C)c(CNC(=O)c2cc(-c3ccc(CN4CCN(CCOCCCCOCCCCOCC(=O)N[C@H](C(=O)N5C[C@H](O)C[C@H]5C(=O)NCc5ccc(-c6scnc6C)cc5)C(C)(C)C)CC4)cc3)cc3c2ccn3C2CCCC2)c(=O)[nH]1 [Compound 5, 1-cyclopentyl-N-[(4,6-dimethyl-2-oxo-1,2-dihydropyridin-3-yl)methyl]-6-(4-{[4-(2-{4-[4-({[(2S)-1-[(2S,4R)-4-hydroxy-2-({[4-(4-methyl-1,3-thiazol-5-yl)phenyl]methyl}carbamoyl)pyrrolidin-1-yl]-3,3-dimethyl-1-oxobutan-2-yl]carbamoyl}methoxy)butoxy]butoxy}ethyl)piperazin-1-yl]methyl}phenyl)-1H-indole-4-carboxamide] | B (B = degradation between 30% and 60%)
CCN(c1cc(-c2ccc(OCCCCOc3ccc4c(c3)C(=O)N(C(C(=O)N3C[C@H](O)C[C@H]3C(=O)N[C@@H](C)c3ccc(-c5scnc5C)cc3)C(C)C)C4)cc2)cc(C(=O)NCc2c(C)cc(C)[nH]c2=O)c1C)C1CCOCC1 (stereo partly drawn) [Compound 103, (2S,4R)-1-(2-(6-(4-((3′-(((4,6-dimethyl-2-oxo-1,2-dihydropyridin-3-yl)methyl)carbamoyl)-5′-(ethyl(tetrahydro-2H-pyran-4-yl)amino)-4′-methyl-[1,1′-biphenyl]-4-yl)oxy)butoxy)-1-oxoisoindolin-2-yl)-3-methylbutanoyl)-4-hydroxy-N-((S)-1-(4-(4-methylthiazol-5-yl)phenyl)ethyl)pyrrolidine-2-carboxamide] | B (B = degradation between 30% and 60%)
